Laboratory results as given in patent publication US9802990B2, “Functional peptides for obesity disorders” (DANONE, S.A., priority 2013, dated 2017).
Like-named read-outs stand apart in the source and are kept apart here. Where no end group is shown, it is not given here.

Tests used:
soy glycinin = test: Protease activity of LAB strains (supernatant and cells); format: biochemical; details: for Protease activity cell: cells; for Protease activity Supernatant: culture supernatant, proteases above 10 KDa concentrated
Excerpt: For the purpose of selecting the most efficient lactic acid bacteria having protease activity against glycinin, different strains of the genera Lactobacillus and Streptococcus were subject to the following hydrolysis assay.
The substrate selected to carry out the process of hydrolysis was soy glycinin. Glycinin is the soy major protein extracted from soy flour after treatment with mercaptoethanol followed by two centrifugation steps as described in Thanh V. H. et al. (Major proteins of soybean seeds: a straightforward fractionation and their characterization. 1976. J Agric Food Chem 24: 1117-1121). Among the enzymatic sources used to degrade glycinin, ten strains were tested: 6 strains from Streptococcus genera (strains 2, 3, 4, 5, 6, 7) and 4 strains from Lactobacillus genera (strains 8, 9, 10 and 11). All these strains were grown in optimal medium (MRS for Lactobacillus strains and BHI for Streptococcus strains) during 17 h at 37° C. and the proteases with a molecular weight above 10 KDa both in supernatant and cells were concentrated to be used as enzymatic sources in glycinin hydrolysis assays. On one hand, proteases from the supernatant were obtained after centrifugation for 15 min at 4000 rpm. Then the supernatant was ultrafiltrated by 10 KDa and the top was resuspended in 2 ml with 50 mM citrate phosphate buffer pH 7. On the other hand, cells obtained from the different cultures were washed with saline solution for 15 min at 4000 rpm and resuspended in 50 mM citrate phosphate buffer pH 7 to evaluate the protease activity in cells and supernatant (Table 1).

[1] = tested on: C. elegans wild type strain N2; test: C. elegans body fat reduction, Nile Red staining; format: in vivo, Caenorhabditis elegans; details: for % Fluorescence Reduction C. elegans: synthesized peptides at 1 μg/mL of final concentration; for % Fluorescence Reduction: nematodes fed NG with peptides alone or in Savia soy fermented product, alone or mixed, 1 μg/mL final concentration, Nile Red
Experimental: The ability to reduce body fat content in the nematode C. elegans was analyzed in a group of 5 peptide extracts previously obtained from glycinin (see Table 4). These samples were selected by their high effect on PL and PLA2 in vitro inhibition. Specifically, 5 peptide extracts were selected from the PLA2 inhibition assay (M20G, M5G, M31G, M27G and M29G). Body fat content was analyzed in the C. elegans wild type strain N2 by Red Nile dying of living nematodes. Experiments were carried out with age-synchronized populations, starting from egg-stage to young adult stage (3-day adults). During the experiments, worms were cultured in the NGM agar plates as control condition, NGM with the corresponding peptide extracts (100 μL/plate) and NGM with 6 μg/mL of Orlistat as positive control. Nile Red was added on top of the NG plates already seeded with Escherichia coli OP50 strain to a final concentration of 0.05 μg/ml. After incubation at 20° C., young adult worms (60 worms per condition) were taken to measure the in vivo fluorescence in a VersaFluor™ Fluorometer System. Fluorescence obtained in treated worms was calculated from fluorescence of worms fed in control conditions (reference sample). Experiments were carried out by duplicate.
From these purified fractions, a total of 11 peptides were selected to be synthesized and evaluated in vivo in the obesity model of C. elegans (Table 9). All peptides were evaluated at 1 μg/mL of final concentration.
We selected 5 peptides obtained from hydrolysis of glycinin with strain 6 (P8a, P6a, P14c, P16f, P14b) The peptides from glycinin were added to a soy fermented product (Savia® from Danone) both alone or mixed at final concentration of 1 μg/mL. Nematodes were fed with these products and then total lipids were quantified by Nile Red staining.

[2] = In vitro enzymatic digestion model of the digestive tract (pepsin, pancreatin, bile), HPLC; format: in vitro ADME
Excerpt: An in vitro enzymatic digestion model of an in vivo digestive tract was developed for mimicking the physiological conditions to check and certify that each selected peptide was differently degraded throughout the gastro-intestinal tract by the digestive process. Pepsin, pancreatin and bile concentrations were optimized using a published experimental design (Granado-Lorencio et al (2007). J. Agri. Food. Chem., 55, 6387-6394).

[3] = target: PLA2 (pancreatic phospholipase A2) (Homo sapiens, UniProt P04054); test: PLA2 inhibition assay by HPLC with DOPC as substrate; format: biochemical
Chain of PLA2 (pancreatic phospholipase A2) (P04054 23-148, species assumed): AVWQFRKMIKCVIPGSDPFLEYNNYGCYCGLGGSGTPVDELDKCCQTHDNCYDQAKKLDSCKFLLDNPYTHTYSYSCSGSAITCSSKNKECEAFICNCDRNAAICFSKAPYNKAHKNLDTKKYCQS
Experimental: Inhibition of PLA2 enzyme was determined by High Performance Liquid Chromatography (HPLC) using 1,2-dioleoyl-sn-glycero-3-phosphocholine (DOPC) as substrate as described by Singh et al. (A rapid isocratic high-performance liquid chromatography method for determination of cholesterol and 1,2-dioleoyl-sn-glycero-3-phosphocholine. Journal of Chromatography (2005); 1073:347-353). Waters 2695 HPLC with Waters 2996 Photodiode detector Array and a C8 column Hypersil BDS (250×4.6 mm, […]) were used carrying out an eluent isocratic method formed by a mixture of ammonium phosphate buffer 50 mM pH 2.7:methanol (15:85, v/v).

PL (pancreatic lipase) = target: T1, PL (pancreatic lipase) (Sus scrofa, UniProt P00591); test: PL inhibition assay with 4-methyl umbelliferyl oleate (4MUO), fluorescence; format: biochemical; details: synthesized peptides
T1 sequence (P00591 1-450): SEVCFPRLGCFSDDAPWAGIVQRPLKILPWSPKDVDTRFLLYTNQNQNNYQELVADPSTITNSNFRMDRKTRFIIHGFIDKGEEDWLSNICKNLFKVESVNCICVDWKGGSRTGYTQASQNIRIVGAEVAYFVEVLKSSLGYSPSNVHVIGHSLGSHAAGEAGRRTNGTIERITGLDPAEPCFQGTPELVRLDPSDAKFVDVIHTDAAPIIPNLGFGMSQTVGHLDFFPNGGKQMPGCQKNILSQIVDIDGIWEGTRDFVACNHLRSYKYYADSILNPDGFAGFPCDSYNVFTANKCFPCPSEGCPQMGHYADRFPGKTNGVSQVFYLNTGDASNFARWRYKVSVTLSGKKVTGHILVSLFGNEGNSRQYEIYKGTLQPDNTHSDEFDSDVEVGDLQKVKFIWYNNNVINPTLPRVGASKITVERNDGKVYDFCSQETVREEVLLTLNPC
Experimental: Inhibition of PL was determined using 4-methyl umbelliferyl oleate (4MUO) as substrate as described by Sugiyama et al. (Oligomeric procyanidins in apple polyphenol are main active components for inhibition of pancreatic lipase and triglyceride absorption. J Agric Food Chem (2007); 55: 4604-4609) with some modifications. Aliquots of 25 μl of each peptide extract were incubated with 25 μl of PL solution (1 mg/ml) and preincubated for 10 minutes at 26° C. with stirring of 500 rpm. Reaction was initiated by adding 50 μl of 4MUO (0.1 mM) dissolved in Dulbecco's buffer. After incubation at 26° C. for 20 minutes with constant stirring (500 rpm) the reaction was stopped by adding 100 μl of 0.1 M sodium citrate buffer (pH 4.2). The amount of 4-methyl umbelliferone released by the enzyme was determined by fluorescence. Peptide extracts were used as inhibitors in the enzymatic assay but had to be diluted 1/20 or 1/50 because of the interference between the fluorescence and the buffer containing the peptides.

Streptococcus thermophilus CNCM I-4269 [Strain 4]
Protease activity cell (soy glycinin): 0.002 U.I./ml
Protease activity Supernatant (soy glycinin): 0.001 U.I./ml

Streptococcus thermophilus CNCM I-1630 [Strain 7]
Protease activity cell (soy glycinin): 0.001 U.I./ml
Protease activity Supernatant (soy glycinin): 0.003 U.I./ml

DEDEDEDEDKPRPSRP (DEDEDEDEDKPRPSRP; listed as Glycine soja) [Peptide P16e]
% Fluorescence Reduction C. elegans [1]: 21.86 ± 4%

CCCCCCCCCCC[C@@H](C[C@@H]1OC(=O)[C@H]1CCCCCC)OC(=O)[C@H](CC(C)C)NC=O [Orlistat, reference compound]
% Fluorescence Reduction [1]: 29.5 ± 0.1%

QDEDEDEDEDKPRPSRP (QDEDEDEDEDKPRPSRP; listed as Glycine soja) [Peptide P17c]
% Fluorescence Reduction C. elegans [1]: 18.13 ± 5.57%

GKREQDEDEDEDEDKPRPSRP (GKREQDEDEDEDEDKPRPSRP; listed as Glycine soja) [Peptide P21b]
% Fluorescence Reduction C. elegans [1]: 24.91 ± 7.1%

HQQEEENEGGSILSG (HQQEEENEGGSILSG; listed as Glycine soja) [Peptide P15a]
% Fluorescence Reduction C. elegans [1]: 22.82 ± 6.1%

Lactobacillus paracasei paracasei CNCM I-1518 [Strain 11]
Protease activity cell (soy glycinin): 0.006 U.I./ml
Protease activity Supernatant (soy glycinin): 0.029 U.I./ml

QGENEGEDKGAIVT [Peptide P14b, QGENEGEDKGAIVT]
metabolised at 0.5 h ([2]; Gastric phase 30 min., read-out: Degradation (%)): 6.7%
metabolised at 2 h ([2]; Gastric phase 120 min., read-out: Degradation (%)): 8.7%
degradation in the in vitro digestion model (in words) ([2]; HPLC, completely degraded = at the beginning of the intestinal phase, resistant ones finally degraded at the end): resistant until the end of the process
metabolised at 0.25 h ([2]; Intestinal phase 15 min., read-out: Degradation (%)): 36.7%
metabolised at 0.5 h ([2]; Intestinal phase 30 min., read-out: Degradation (%)): 48.9%
metabolised at 1 h ([2]; Intestinal phase 60 min., read-out: Degradation (%)): 68.8%
metabolised at 2 h ([2]; Intestinal phase 120 min., read-out: Degradation (%)): 100%
metabolised at 5 min ([2]; Oral phase 5 min., read-out: Degradation (%)): 6%
% Fluorescence Reduction [1]: 30.25 ± 4.2%
% Fluorescence Reduction C. elegans [1]: 35.30 ± 6.1%
Percentage of PLA2 inhibition ([3]; peptide 0.035 mg/ml): 5.9 ± 5.0%
Percentage of PLA2 inhibition ([3]; peptide 0.35 mg/ml): 22.2 ± 5.6%
Percentage of PLA2 inhibition ([3]; peptide 2 mg/ml): 23.8 ± 5.5%
Percentage of PLA2 inhibition ([3]; peptide 3.5 mg/ml): 28.8 ± 3.1%
IC50 (PL (pancreatic lipase)): 346 µM

Streptococcus thermophilus CNCM I-2785 [Strain 3]
Protease activity cell (soy glycinin): 0.001 U.I./ml
Protease activity Supernatant (soy glycinin): 0.009 U.I./ml
